Measured values from patent US20230158057A1, “COMPOSITIONS AND METHODS FOR THE TREATMENT OF PAIN” (Duke University, priority 2020, published 2023).

Columns and labels:
[1] = tested on: mice with intrafemoral Lewis lung carcinoma (LLC); test: Open field test in LLC bone cancer model; assay type: in vivo, mouse; settings: d14 after tumor inoculation
Description: Behavior tests. All the behavioral tests were conducted in a blinded manner and performed during between the hours of 9:00-16:00. Animals were habituated in a light and humidity controlled testing environment for at least 2 days prior to baseline testing. For Von Frey testing, mice were confined to individual 5×5 cm boxes placed on an elevated wire grid. A blinded experimenter stimulated their hindpaws using a series of von Frey filaments with logarithmically increasing stiffness (0.02-2.56 g, Stoelting). Each filament was applied perpendicularly to the central plantar surface. The 50% paw withdrawal threshold was determined using Dixon's up-down method. In addition, we also measured paw withdrawal frequency to repeated stimulation (10 times, with ˜1-2 minutes between each stimulation) using a subthreshold 0.16 g von Frey filament, which is a more sensitive method to detect mechanical allodynia. […] To measure locomotor function, we performed open field testing in which mice were placed in the center of a 45×45 cm chamber and locomotor activity was recorded by an overhead webcam connected to a laptop computer, and animals' movements were automatically tracked for 30 minutes using ANY-Maze. The total distance traveled and mean speed during the 30-minute period were analyzed.

[2] = tested on: IFN-β; test: IFN-β ELISA on DRGs incubated ex vivo or cultured with ADU-S100; assay type: cell-based, mouse; settings: for IFN-β levels in DRG lysate: ex vivo incubation 30 μM, 2 h
Description: (§1) ELISA: Mouse high-sensitivity IFN-α ELISA kit (42115-1) and IFN-β ELISA kit (42410-1) were purchased from PBL Assay Science and performed on serum, DRG lysate, or cell culture medium according to the manufacturer's instructions. Serum was obtained from whole blood through cardiac puncture at the time of euthanasia, followed by incubation for 30 minutes at 35° C. to promote clotting. Subsequently, samples were centrifuged at 4° C. at 2,500 xg for 15 minutes, followed by careful isolation of serum (supernatant). For ELISA on cell culture medium, samples were first concentrated approximately 10-fold using Amicon centrifugal filters (Millipore Sigma, UFC8030). DRGs were lysed by mechanical homogenization in a pH 7.4 CHAPS lysis buffer (FivePhoton Biochemicals, CIB-1-7.4-60) supplemented with a protease inhibitor cocktail (Millipore Sigma, 11697498001) and phosphatase inhibitor cocktail (FivePhoton Biochemicals, PIC1). For DRG lysate, Pierce BCA (ThermoFisher, 23225) assays were performed according to the manufacturer's instructions to quantify protein concentration, and ELISA results are reported normalized to protein concentration (pg/mg DRG tissue). To measure IFN-β levels in cerebrospinal fluid (CSF) isolated by spinal catheter from NHPs, we utilized a cynomolgus IFN-β ELISA kit (PBL Assay Science, 46415-1), which was performed using 50 μl CSF according to the manufacturer's instructions. Standard curves were performed in all experiments and values interpolated using GraphPad Prism version.

[3] = tested on: IFN-α; test: IFN-α ELISA on DRGs incubated ex vivo or cultured with ADU-S100; assay type: cell-based, mouse
Description: as §1

[4] = tested on: LLC / LL/2-Luc2 / E0771 bone tumors; test: Local tumor burden (bioluminescence imaging, thigh circumference ratio); assay type: in vivo, mouse
Description: Culture of LLC cells and measurement of local tumor burden: Murine LLC cells were cultured in high glucose (4.5 g/L) Dulbecco's Modified Eagle Medium (DMEM; ThermoFisher) supplemented with 10% fetal bovine serum (Gibco, ThermoFisher) and 1% Antibiotic-Antimycotic solution containing penicillin, streptomycin, and Amphotericin B (ThermoFisher, 15240062). Cells were cultured in the presence of 5% CO2 at 37° C. Cells were passaged using a 0.05% trypsin digest once they achieved 70% confluency. Prior to in vivo injection, cells were harvested with 0.05% trypsin digestion followed by several washes in PBS. Cell counts were performed using a hemocytometer and diluted to achieve a suspension of 1×10^8 ml-1 cells in PBS. To determine whether i.t. STING agonists altered local tumor burden induced by femoral inoculation with LLC cells, mice were lightly anesthetized with isoflurane at the conclusion of the experiment, followed by measurement of the total circumference of the widest aspect of the thigh, which accurately reflects tumor burden. Ratios were computed between the ipsilateral (LLC-inoculated) and contralateral (tumor-free) legs.
In vivo bioluminescence imaging. RediJect D-Luciferin Ultra was purchased from PerkinElmer (770505). Prior to in vivo imaging, mice were shaved in the region of interest depicted in the figure. Bioluminescence images of LL/2-Luc2 bearing mice were captured with IVIS Lumina III system 15 min after intraperitoneal injection of D-Luciferin (30 mg/kg). The IVIS acquisition control panel was set to following conditions for imaging: Exposure time=auto, Binning=medium, F/Stop=1, Emission Filter=open. The bioluminescence images were analyzed using Living Image software from PerkinElmer.
STING agonists suppress local bone cancer tumor burden and further metastasis. Intratumoral injection of STING agonists has been reported to reduce tumor growth by promoting T cell-mediated antitumor immunity in several preclinical animal studies. It is unknown, however, whether systemic administration of STING agonists can attenuate tumor progression in the bone marrow, which is generally regarded as an overwhelmingly immunosuppressive tumor microenvironment. To answer this question, luciferase-labeled LLC cells (LL/2-LUC2 cell line) were used to establish the metastatic bone cancer model via intrafemoral inoculation, thereby enabling measurement of local tumor burden by in vivo bioluminescent imaging. Mice were treated with vehicle or DMXAA (20 mg/kg, i.p. at d3 and d7), followed by in vivo bioluminescence imaging at d8, d11, and d15. […] To quantify this, we measured the ratio of the maximum thigh circumference (ipsilateral/contralateral), which accurately reflects local tumor volume. […]

[5] = cultured DRGs from STING-WT mice

| SMILES | open field distance and speed of movement [1] | IFN-β in culture medium [2, 5] | increase in IFN-β in STING-KO and STING-cKO DRGs ([2]; ex vivo incubation) | IFN-β levels in DRG lysate ([2]; STINGfx/fx, Nav1.8-Cre mice) | IFN-β levels in DRG lysate ([2]; WT mice) | IFN-α in culture medium [3, 5] | increase in IFN-α in STING-KO and STING-cKO DRGs ([3]; ex vivo incubation) | IFN-α levels in DRG lysate ([3]; ex vivo incubation 30 μM, 2 h, WT mice) | local tumor burden (total flux, bioluminescence) ([4]; LL/2-Luc2, 20 mg/kg i.p. d3 and d7) | local tumor burden, Batf3^+/+ vs Batf3^−/− ([4]; d17) | ratio of maximum thigh circumference, WT vs Rag1^−/− ([4]; d17) | ratio of maximum thigh circumference (ipsilateral/contralateral) ([4]; day 17, LLC and E0771 models) |
| --- | --- | --- | --- | --- | --- | --- | --- | --- | --- | --- | --- | --- |
| Nc1ncnc2c1ncn2[C@@H]1O[C@@H]2COP(=O)([S-])O[C@@H]3[C@H](O)[C@@H](COP([O-])(=S)O[C@H]2[C@H]1O)O[C@H]3n1cnc2c(N)ncnc21.[Na+].[Na+] (stereo partly drawn) [ADU-S100, (2′-5′)-[P(R)]-5′-O-[(R)-hydroxymercaptophosphinyl]-P-thioadenylyl-adenosine cyclic dinucleotide] | increased overall distance of movement and increased speed of movement | increased IFN-α and IFN-β in the culture medium | abolished in STING-KO mice and largely abolished in STING-cKO mice | significant elevation of IFN-β in STINGfx/fx; Nav1.8-Cre DRG lysate, but this increase was significantly lower than that seen in WT mice | IFN-β levels in DRG lysate were increased | increased IFN-α and IFN-β in the culture medium | abolished in STING-KO mice and largely abolished in STING-cKO mice | IFN-α levels in DRG lysate were increased |  |  |  |  |
| Cc1ccc2c(=O)c3cccc(CC(=O)O)c3oc2c1C [DMXAA, 2-(5,6-dimethyl-9-oxo-9H-xanthen-4-yl)acetic acid] | greater overall distance of movement and increased speed of movement |  |  |  |  |  |  |  | lower local tumor burden at d11 and d15 | only tumor-bearing Batf3^+/+ mice but not Batf3^−/− mice exhibited a decrease in local tumor burden | effectively reduced the ratio of maximum thigh circumference only in WT mice but not in Rag1^−/− mice | could reduce the ratio of maximum thigh circumference |
